Results as given in paper PMC6017358 (Molecules : A Journal of Synthetic Chemistry and Natural …, 2018).
Values after ≈ are worked out from the molar mass of the structure shown. Values joined by “and” are separate entries in the source; they are usually repeats but may differ in a detail not shown here. Equal entries are not always repeated. Structures can show the parent of a compound that is named as a salt. Where two headings read alike, the source gives them in different places.

Assays:
[1] = system: lung cancer cell line A-549; test: In vitro cytotoxicity viability assay (crystal violet); format: cell-based; conditions: Homo sapiens, A549
Description: (§1) The cells were seeded in 96-well plates at a cell concentration of 1 × 10^4 cells per well in 100 µL of growth medium. Fresh medium containing different concentrations of the test sample was added 24 h after seeding. Serial two-fold dilutions of the tested chemical compound were added to confluent cell monolayers dispensed into 96-well, flat-bottomed microliter plates (Falcon, NJ, USA) using a multichannel pipette. The microliter plates were incubated at 37 °C in a humidified incubator with 5% CO2 for a period of 48 h. Three wells were used for each concentration of the test sample. Control cells were incubated without test sample and with or without DMSO. The little percentage of DMSO present in the wells (maximal 0.1%) was found not to affect the experiment. After incubation of the cells at 37 °C, various concentrations of sample were added, and the incubation was continued for 24 h and viable cells yield was determined by a colorimetric method. In brief, after the end of the incubation period, media were aspirated and the crystal violet solution (1%) was added to each well for at least 30 min. The stain was removed and the plates were rinsed using tap water until all excess stain is removed. Glacial acetic acid (30%) was then added to all wells and mixed thoroughly, and then the absorbance of the plates were measured after gently shaken on microplate reader (TECAN, Inc., Morrisville, NC, USA), using a wavelength of 490 nm. All results were corrected for background absorbance detected in wells without added stain. Treated samples were compared with the cell control in the absence of the tested compounds. All experiments were carried out in triplicate. The cell cytotoxic effect of each tested concentration was calculated. The optical density was measured with the microplate reader (SunRise, TECAN, Inc., Morrisville, NC, USA) to determine the number of viable cells and the percentage of viability was calculated as [1 − (ODt/ODc)] × 100% where ODt is the mean optical density of wells treated with the tested sample and ODc is the mean optical density of untreated cells. The relation between surviving cells and drug concentration is plotted to get the survival curve of each tumor cell line after treatment. […] The biological evaluation was done at the Regional Center for Mycology & Biotechnology, Al-Azhar University.

[2] = system: breast cancer cell line MCF-7; test: as above; format: cell-based; conditions: Homo sapiens, MCF7
Description: as §1

rats = conditions: oral administration in rats; cited from earlier work

SMILES	IC50 ([1]; read-out: IC50)	IC50 ([2]; MCF-7, read-out: IC50)	LD50 (rats)	IC50 [1]	IC50 [2]
NCCCC(O)(P(=O)(O)O)P(=O)(O)O [Alendronate, reference compound]	19 µg/mL (≈ 76.3 µM)	89.4 µg/mL (≈ 359 µM)	–	–	–
CP(=O)(O)CCC(N)C(=O)O (centres unmarked) [Phosphinothricin, 2-amino-4-(hydroxymethyl-phosphinylbutyric acid ammonium salt]	–	–	2170 mg/kg	45.8 µg/mL and 253 µM	32.6 µg/mL and 180 µM
